Assay results reported in ChEMBL document CHEMBL4610048, “Design, synthesis, and evaluation of novel 4-amino-2-(4-benzylpiperazin-1-yl)methylbenzonitrile compounds as Zika inhibitors” (Bioorg Med Chem Lett, 2020).
Calls of active or inactive are those of the source. The rule behind the calls is not given here.

How the values were obtained:
[1] = tested on: Zika virus; experiment: Antiviral activity against Zika virus infected in African green monkey Vero E6 cells assessed as inhibition of viral induced cytopathic effect at 10 uM relative to control; assay type: functional; details: Vero C1008
[2] = Cytotoxicity against African green monkey Vero E6 cells assessed as cell viability at 10 uM relative to control; assay type: cell-based, Vero C1008; details: chlorocebus sabaeus, read-out: Activity
[3] = Cytotoxicity against African green monkey Vero E6 cells assessed as cell viability at 40 uM relative to control; assay type: cell-based, Vero C1008; details: chlorocebus sabaeus, read-out: Activity
[4] = Selectivity index, ratio of CC50 for African green monkey Vero E6 cells to EC50 for Zika virus infected in African green monkey Vero E6 cells assessed as inhibition of viral induced cytopathic effect; assay type: toxicity, Vero C1008; details: read-out: Ratio CC50/EC50
[5] = tested on: Zika virus; experiment: Antiviral activity against Zika virus infected in African green monkey Vero E6 cells assessed as inhibition of viral induced cytopathic effect at 40 uM relative to control; assay type: functional; details: Vero C1008
[6] = tested on: Zika virus; experiment: Antiviral activity against Zika virus infected in African green monkey Vero E6 cells assessed as reduction in viral induced cytopathic effect; assay type: functional, organism-based; details: Vero C1008
[7] = Cytotoxicity against African green monkey Vero E6 cells assessed as reduction in cell viability; assay type: cell-based, Vero C1008; details: chlorocebus sabaeus
[8] = tested on: Zika virus; experiment: Antiviral activity against Zika virus infected in African green monkey Vero E6 cells assessed as suppression of viral RNA synthesis at 1.25 to 10 uM incubated for 96 hrs by qRT-PCR analysis; assay type: functional, organism-based; details: Vero C1008
[9] = tested on: Zika virus; experiment: Antiviral activity against Zika virus infected in African green monkey Vero E6 cells assessed as suppression of viral envelope protein expression at 1.25 to 10 uM incubated for 96 hrs by Western blot analysis; assay type: functional, organism-based; details: Vero C1008
[10] = tested on: Zika virus; experiment: Antiviral activity against Zika virus infected in African green monkey Vero E6 cells assessed as suppression of viral envelope protein expression incubated for 96 hrs by Western blot analysis; assay type: functional, organism-based; details: Vero C1008
[11] = tested on: Zika virus; experiment: Antiviral activity against Zika virus infected in African green monkey Vero E6 cells assessed as suppression of viral RNA synthesis incubated for 96 hrs by qRT-PCR analysis; assay type: functional, organism-based; details: Vero C1008
[12] = tested on: Zika virus; experiment: Antiviral activity against Zika virus infected in African green monkey Vero E6 cells assessed as suppression of viral RNA synthesis at 10 uM incubated for 96 hrs by qRT-PCR analysis; assay type: functional, organism-based; details: Vero C1008
[13] = tested on: Zika virus; experiment: Antiviral activity against Zika virus infected in African green monkey Vero E6 cells assessed as suppression of viral envelope protein expression at 10 uM incubated for 96 hrs by Western blot analysis; assay type: functional, organism-based; details: Vero C1008

Row | SMILES | inhibition at 10 µM [1] | viability at 10 µM [2] | also measured
1 | N#Cc1ccccc1CN1CCN(Cc2ccccc2C#N)CC1 | 34.7% | 93.8% | 
2 | CN1CCCN(c2ccc(C#N)c(CN3CCN(Cc4ccc(F)cc4)CC3)c2)CC1 | 55.1% | 79.3% | 
3 | N#Cc1ccc(NCCN2CCOCC2)cc1CN1CCN(Cc2ccc(C(F)(F)F)cc2)CC1 | 47.5% | 79.2% | 
4 | NC(=O)c1ncn([C@@H]2O[C@H](CO)[C@@H](O)[C@H]2O)n1 [RIBAVIRIN] |  |  | viability at 40 µM [3]: 94.5%; selectivity ratio [4]: > 3; inhibition at 40 µM [5]: 37%; EC50 [6]: 33 µM; CC50 [7]: > 100 µM
5 | CN1CCCN(c2ccc(C#N)c(CN3CCN(Cc4ccccc4C#N)CC3)c2)CC1 | 36.2% | 87.1% | 
6 | CN1CCCN(c2ccc(C#N)c(CN3CCN(Cc4ccc(C(F)(F)F)cc4)CC3)c2)CC1 | 47.5% | 81.3% | 
7 | CN(C)CCN(C)c1ccc(C#N)c(CN2CCN(Cc3ccc(Cl)cc3)CC2)c1 | 50.9% | 82.1% | 
8 | N#Cc1ccc(N2CCNCC2)cc1CN1CCN(Cc2ccc(C(F)(F)F)cc2)CC1 | 0.5% | 89% | 
9 | CC(=O)N1CCN(c2ccc(C#N)c(CN3CCN(Cc4ccc(C(F)(F)F)cc4)CC3)c2)CC1 | 15.1% | 89.1% | 
10 | CN(C)c1ccc(C#N)c(CN2CCN(Cc3ccc(C(F)(F)F)cc3)CC2)c1 | 19.2% | 90.5% | 
11 | CN(CCc1ccccc1)c1ccc(C#N)c(CN2CCN(Cc3ccc(C(F)(F)F)cc3)CC2)c1 | 35.1% | 73.6% | 
12 | CN1CCCN(c2ccc(C#N)c(CN3CCN(Cc4ccccc4)CC3)c2)CC1 | 84.3% | 93.6% | selectivity ratio [4]: > 19; EC50 [6]: 5.3 µM; CC50 [7]: > 100 µM
13 | CN(C)CCOc1ccc(C#N)c(CN2CCN(Cc3ccc(C(F)(F)F)cc3)CC2)c1 | 32.8% | 80.1% | 
14 | CN1CCN(c2ccc(C#N)c(CN3CCN(Cc4ccc(C(F)(F)F)cc4)CC3)c2)CC1 | 0.3% | 84.5% | 
15 | CC(c1ccccc1)N1CCN(Cc2cc(N3CCCN(C)CC3)ccc2C#N)CC1 (stereo not given) | 26.7% | 55.1% | 
16 | CN(C)CCN(C)c1ccc(C#N)c(CN2CCN(C3CCc4ccccc4C3)CC2)c1 (stereo not given) | 81.8% | 67.8% | 
17 | CN1CCCN(c2ccc(C#N)c(CN3CCN(Cc4ccc(C#N)cc4)CC3)c2)CC1 | 77.4% | 76% | selectivity ratio [4]: > 22; inhibition [8]: inactive; inhibition [9]: inactive; EC50 [6]: 4.4 µM; CC50 [7]: > 100 µM
18 | CC(c1ccccc1)N1CCN(Cc2ccccc2C#N)CC1 (stereo not given) | 35.8% | 77.5% | 
19 | N#Cc1ccc(NCCCn2ccnc2)cc1CN1CCN(Cc2ccc(F)cc2)CC1 | 58.3% | 96.5% | 
20 | CN(C)CCN(C)c1ccc(C#N)c(CN2CCN(Cc3ccc(F)cc3)CC2)c1 | 60.7% | 85.1% | 
21 | CN(C)CCN(C)c1ccc(C#N)c(CN2CCN(Cc3ccc(C#N)cc3)CC2)c1 | 75.5% | 77.4% | selectivity ratio [4]: 10; EC50 [6]: 5.6 µM; CC50 [7]: 66 µM
22 | CN(C)CCN(C)c1ccc(C#N)c(CN2CCN(Cc3ccccc3Cl)CC2)c1 | 70.4% | 86.1% | inhibition [10]: Dose-dependent effect; selectivity ratio [4]: > 20; inhibition [11]: Dose-dependent effect; EC50 [6]: 5.1 µM; CC50 [7]: > 100 µM
23 | COc1ccc(CN2CCN(Cc3cc(N4CCCN(C)CC4)ccc3C#N)CC2)cc1 | 59.2% | 65.8% | 
24 | N#Cc1ccc(NCCCn2ccnc2)cc1CN1CCN(Cc2ccc(C(F)(F)F)cc2)CC1 | 66.5% | 70% | selectivity ratio [4]: 5; inhibition [12]: Active; inhibition [13]: Active; EC50 [6]: 4.9 µM; CC50 [7]: 23.7 µM
25 | CC(c1ccccc1)N1CCN(Cc2cc(N(C)CCN(C)C)ccc2C#N)CC1 (stereo not given) | 43% | 64.7% | 
26 | CN(C)CCN(C)c1ccc(C#N)c(CN2CCN(Cc3cccc(Cl)c3)CC2)c1 | 54.8% | 73.6% | 
27 | N#Cc1ccc(CN2CCN(Cc3ccc(C#N)cc3)CC2)cc1 | 12.6% | 89.6% | 
28 | N#Cc1ccc(NCCn2cccc2)cc1CN1CCN(Cc2ccc(C(F)(F)F)cc2)CC1 | 56.2% | 75.7% | 
